Our source for the TGI values is PubChem BioAssay (NCI).

Each structure is given as a SMILES string.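 Compound exposure: 48 hours, 5 concentrations, 96-well plates. TGI: concentration producing complete growth inhibition.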 Some results are limits rather than exact numbers.

Holding throughout (assay): NCI tumour cell line growth inhibition, 48 h
For experiment [1], the system named is XF 498 CNS.
The test system of experiment [2] is KM20L2 colon.
Experiment [3] concerns DMS 273 small cell lung.
In experiment [4] the test system is HOP-18 NSCLC.
Experiment [5] relates to M19-MEL melanoma.
Experiment [6] concerns SNB-78 CNS.
Experiment [7] concerns RXF-631 renal.
Experiment [8] has as its system LXFL 529 NSCLC.
For experiment [9], the system named is DLD-1 colon.

For the compound `CCOC(=O)C1=C(O)C(=O)c2ccoc2C1=O`, the TGI in experiment [1], in [2], in [3], in [4], in [5] and in experiment [6] was above 100 µM each time.
Take `CCCCCCCCCCCCCCCCCCOCC(C[N+]1(C)CCC(O)CC1)OCC` (centres undefined): the TGI in experiment [1] worked out at 29 µM; in [7], 21.1 µM; in experiment [3], 4.91 µM; in experiment [8] it was 11 µM; in [5], 14.4 µM; in experiment [9], 44.8 µM. Besides, in experiment [6], the TGI amounted to 14.7 µM.
For the compound `O=C1C[C@@H]2[C@@H](c3ccccc3)[C@@H]3C(=O)c4ccccc4NC(=O)[C@H]3[C@]2(O)c2ccccc2N1`, the TGI in experiment [1], in experiment [2], in experiment [3], in [8], in experiment [5] and in [6] was above 100 µM each time.
